Results reported in patent US20150254433A1, “Methods and Models for Determining Likelihood of Cancer Drug Treatment Success Utilizing Predictor Biomarkers, and Methods of Diagnosing and Treating Cancer Using the Biomarkers” (priority 2014, published 2015).

tested on: breast cancer cell lines; experiment: not given; conditions: FIG. 2; HER2 over-expressing versus other breast cancer cell lines; cited from earlier work

Structure (SMILES) | drug sensitivity of HER2 over-expressing cell lines
CS(=O)(=O)CCNCc1ccc(-c2ccc3ncnc(Nc4ccc(OCc5cccc(F)c5)c(Cl)c4)c3c2)o1 [lapatinib] | comparatively high drug sensitivity

tested on: breast cancer cell lines; experiment: Drug response (GI50, 50% reduction in proliferation) of breast cancer cell lines in culture; format: cell-based; conditions: comparison of sensitivity ranges across cell lines
Source text: Recently, large datasets describing the effects of various drugs on the growth of cancer cells in culture have been generated for the purpose of accelerating the preclinical evaluation of new compounds. One of largest datasets with respect to the number of drugs and breast cancer cell lines describes the effects of ninety (90) different drugs on seventy (70) different breast cancer cell lines. The dataset includes measurements of the concentration of each drug that causes a 50% reduction in the proliferation of cells in culture (i.e., GI50). […] Acquired resistance to chemotherapeutics or targeted agents is recognized and is being studied intensively. […] There appears to be a relatively large amount of intrinsic variability in the responses to drugs by these tumor-derived cell lines. These intrinsic differences in sensitivity, if replicated in breast tumors, could explain some of the variability in responses of tumors to chemotherapeutic drugs or targeted agents.
Another dataset that is statistically analyzed using lasso regression (e.g., a least absolute shrinkage and selection operator [i.e., lasso] regression model) includes responses of the cancer cell lines to various cancer treatment drugs (e.g., 5, 10, 20, 30, 40, 50 or more drugs). In one example described herein, the datasets include responses from approximately 90 drugs on 70 different breast cancer cell lines. As mentioned elsewhere herein, the drug response data are determined by measuring the concentration of drugs or compounds that causes a 50% reduction (e.g., GI50 or IC50 data) in the proliferation of the cells in culture.
Sensitivity is the negative base ten logarithm of the 50% growth inhibition concentration. In the RPPA dataset, which has the most cell lines, the HER2 overexpressing lines are clearly separated from the others. This difference was used to define HER2 overexpression (e.g., represented by open circles), and the same definition of overexpression versus normal expression is used in the other protein datasets and in other Figures herein. For the glycoprotein and MRM datasets, the base ten logarithms are given on the horizontal axes. The quantitative relationships between HER2 expression levels and drug sensitivities in FIG. 2 are shown in scatterplots, in which each point corresponds to a particular cell line. The protein datasets all include cell lines that overexpress HER2. These cell lines are generally clustered on the right sides of the plots as separate groups.

Structure (SMILES) | range of observed drug sensitivities, in words, relative to another drug
O=c1[nH]c2ccccc2n1C1CCN(Cc2ccc(-c3nc4cc5[nH]cnc5cc4nc3-c3ccccc3)cc2)CC1 [Sigma AKT1,2 inhibitor] | significantly lower
CC(=O)O[C@@]12CO[C@@H]1C[C@H](O)[C@@]1(C)C(=O)[C@H](O)C3=C(C)[C@@H](OC(=O)[C@H](O)[C@@H](NC(=O)OC(C)(C)C)c4ccccc4)C[C@@](O)([C@@H](OC(=O)c4ccccc4)[C@H]21)C3(C)C [docetaxel] | much smaller range than the sensitivity of the cell lines to rapamycin
CC(=O)O[C@H]1C(=O)[C@@]2(C)[C@H]([C@H](OC(=O)c3ccccc3)[C@]3(O)C[C@H](OC(=O)[C@H](O)[C@@H](NC(=O)c4ccccc4)c4ccccc4)C(C)=C1C3(C)C)[C@]1(OC(C)=O)CO[C@@H]1C[C@@H]2O [paclitaxel] | much smaller range than the sensitivity of the cell lines to rapamycin

same assay, conditions: sensitivity = negative base ten logarithm of the 50% growth inhibition concentration; difference between most and least sensitive cell lines

Structure (SMILES) | range over which the cell lines varied in sensitivity to the drug
CO[C@H]1C[C@@H]2CC[C@@H](C)[C@@](O)(O2)C(=O)C(=O)N2CCCC[C@H]2C(=O)O[C@H]([C@H](C)C[C@@H]2CC[C@@H](OCCO)[C@H](OC)C2)CC(=O)[C@H](C)/C=C(\C)[C@@H](O)[C@@H](OC)C(=O)[C@H](C)C[C@H](C)/C=C/C=C/C=C/1C [everolimus] | 3.3 orders of magnitude
CO[C@H]1C[C@@H]2CC[C@@H](C)[C@@](O)(O2)C(=O)C(=O)N2CCCC[C@H]2C(=O)O[C@H]([C@H](C)C[C@@H]2CC[C@@H](OC(=O)C(C)(CO)CO)[C@H](OC)C2)CC(=O)[C@H](C)/C=C(\C)[C@@H](O)[C@@H](OC)C(=O)[C@H](C)C[C@H](C)/C=C/C=C/C=C/1C [temsirolimus] | 3.7 orders of magnitude
Nc1ccn([C@@H]2O[C@H](CO)[C@@H](O)C2(F)F)c(=O)n1 [gemcitabine] | approximately four
CCC1=C[C@@H]2CN(C1)Cc1c([nH]c3ccccc13)[C@@](C(=O)OC)(c1cc3c(cc1OC)N(C)[C@H]1[C@@](O)(C(=O)OC)[C@H](OC(C)=O)[C@]4(CC)C=CCN5CC[C@]31[C@@H]54)C2 [vinorelbine] | approximately four
CO[C@H]1C[C@@H]2CC[C@@H](C)[C@@](O)(O2)C(=O)C(=O)N2CCCC[C@H]2C(=O)O[C@H]([C@H](C)C[C@@H]2CC[C@@H](O)[C@H](OC)C2)CC(=O)[C@H](C)/C=C(\C)[C@@H](O)[C@@H](OC)C(=O)[C@H](C)C[C@H](C)/C=C/C=C/C=C/1C [rapamycin] | 4.6 orders of magnitude
